Patent US5225528A, “Cyclic hexapeptide oxytocin antagonists” (priority 1990, dated 1993)
Numbered stars: 1 amine (or outer) side, 2 acyl side, 3 side chain; on linkers, the order of the positions; unused ones are H or OH. Square brackets hold non-standard residues; d marks the D form. Peptide text beside a SMILES is read from it. * marks the point of attachment. d1Nal = N[C@H](Cc1cccc2ccccc12)C(=O)O; d(aIle) = CC[C@H](C)[C@@H](N)C(=O)O; X12 = O=C([C@@H]1CCCNN1[*:1])[*:2]; Hyp = O=C(O)[C@@H]1C[C@@H](O)CN1; X6 = O=C([C@H]1CCCNN1[*:1])[*:2]; dNMeF = CN[C@H](Cc1ccccc1)C(=O)O; Cha = N[C@@H](CC1CCCCC1)C(=O)O; dCha = N[C@H](CC1CCCCC1)C(=O)O; dChg = N[C@@H](C(=O)O)C1CCCCC1; dPhg = N[C@@H](C(=O)O)c1ccccc1; Chg = N[C@H](C(=O)O)C1CCCCC1; Phg = N[C@H](C(=O)O)c1ccccc1; Pip = O=C(O)[C@@H]1CCCCN1; dPip = O=C(O)[C@H]1CCCCN1; NMeA = CN[C@@H](C)C(=O)O; dNMeA = CN[C@H](C)C(=O)O; Bn = c1ccc(C*)cc1; Acm = CC(=O)NC*

Target: T1, uterine OT receptors (Rattus norvegicus, UniProt P70536)
T1 construct: from tissue; host or cells: uterus of DES-treated rats, crude membranes
T1 sequence (P70536 1-388): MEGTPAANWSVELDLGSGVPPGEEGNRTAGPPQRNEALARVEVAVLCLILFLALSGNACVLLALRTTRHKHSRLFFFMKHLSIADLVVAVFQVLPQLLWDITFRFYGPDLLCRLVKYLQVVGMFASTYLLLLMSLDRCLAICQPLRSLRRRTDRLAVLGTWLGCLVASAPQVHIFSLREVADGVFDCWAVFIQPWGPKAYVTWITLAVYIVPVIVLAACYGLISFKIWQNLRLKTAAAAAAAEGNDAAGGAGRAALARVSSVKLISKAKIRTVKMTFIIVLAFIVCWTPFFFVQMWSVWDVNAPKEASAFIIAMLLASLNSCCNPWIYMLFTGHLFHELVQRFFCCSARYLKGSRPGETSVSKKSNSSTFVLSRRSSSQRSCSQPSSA
Assay: [^3 H]OT binding to uterine OT receptors, crude membrane preparation of uteri from DES-treated rats
Conditions: for IC50: rat uterus membranes, 1 nM [^3 H]OT, read-out: Receptor Binding Results IC50 (nM) [^3 H]OT
Method: Competition studies were conducted at equilibrium (60 minutes; 22° C.) using 1 nM [^3 H]OT in the following assay buffer: 50 mM Tris-HCl, 5 mM MgCl2, and 0.1% BSA, pH 7.4.

| Structure (SMILES) | inhibition at 0.01 µM (1 h, @ 10 (nM), read-out: [^3 H]OT: percent inhibition of radioligand at the given concentration) [%] | IC50 [nM] |
| --- | --- | --- |
| CC[C@H](C)[C@@H]1NC(=O)[C@@H](Cc2ccccc2)NC(=O)[C@@H]2CCCN2C(=O)[C@@H](Cc2ccccc2)NC(=O)[C@H](C)NC(=O)[C@@H](C)NC1=O [Example 51, c-[D-Phenylalanyl-L-isoleucyl-D-alanyl-L-alanyl-D-phenylalanyl-L-prolyl]] (cyclo(A[dF]P[dF]I[dA])) |  | > 10000 |
| CC[C@H](C)[C@@H]1NC(=O)[C@@H](Cc2ccccc2)NC(=O)[C@@H]2CCCN2C(=O)[C@@H](Cc2ccccc2)N(C)C(=O)[C@@H]2CCCN2C(=O)[C@H]2CCCN2C1=O [Example 52, c-[D-Phenylalanyl-L-isoleucyl-D-prolyl-L-prolyl-N-methyl-D-phenylalanyl-L-prolyl]] (cyclo([dNMeF]P[dF]I[dP]P)) |  | 3400 |
| CC[C@H](C)[C@@H]1NC(=O)[C@@H](Cc2ccccc2)NC(=O)[C@@H]2CCCN2C(=O)[C@@H](Cc2ccccc2)NC(=O)[C@@H]2CCCN2C(=O)[C@H]2CCCN2C1=O [Example 53, c-[D-Phenylalanyl-L-isoleucyl-D-prolyl-L-prolyl-D-phenylalanyl-L-prolyl]] (cyclo([dF]P[dF]I[dP]P)) |  | 2600 |
| CC[C@H](C)[C@@H]1NC(=O)[C@@H](Cc2ccccc2)NC(=O)[C@@H]2CCCN2C(=O)[C@@H](Cc2ccccc2)NC(=O)[C@H](C)N(C)C(=O)[C@@H](C)N(C)C1=O [Example 54, c-[D-Phenylalanyl-L-isoleucyl-N-methyl-D-alanyl-N-methyl-L-alanyl-D-phenylalanyl-L-prolyl]] (cyclo(I[dNMeA][NMeA][dF]P[dF])) |  | 3000 |
| CC[C@H](C)[C@@H]1NC(=O)[C@@H](Cc2ccccc2)NC(=O)[C@@H]2CCCN2C(=O)[C@@H](CSCc2ccccc2)NC(=O)[C@@H]2CCCN2C(=O)[C@H]2CCCN2C1=O [Example 59, c-[D-Phenylalanyl-L-isoleucyl-D-prolyl-L-prolyl-D-crsteinyl(Bzl)-L-prolyl]] (cyclo([dC](Bn)P[dF]I[dP]P)) |  | > 1000 |
| CC[C@H](C)[C@@H]1NC(=O)[C@@H](Cc2ccccc2)NC(=O)[C@@H]2CCCN2C(=O)[C@@H]([C@H](C)OCc2ccccc2)NC(=O)[C@@H]2CCCN2C(=O)[C@H]2CCCN2C1=O [Example 61, c-[D-Phenylalanyl-L-isoleucyl-D-prolyl-L-prolyl-D-threoninyl(Bzl)-L-prolyl]] (cyclo([dT](Bn)P[dF]I[dP]P)) |  | > 10000 |
| CC[C@H](C)[C@@H]1NC(=O)[C@@H](Cc2ccccc2)NC(=O)[C@@H]2CCCN2C(=O)[C@@H](CCC(N)=O)NC(=O)[C@@H]2CCCN2C(=O)[C@H]2CCCN2C1=O [Example 68, c-[D-Phenylalanyl-L-isoleucyl-D-prolyl-L-prolyl-D-α-glutaminyl-L-prolyl]] (cyclo([dF]I[dP]P[dQ]P)) |  | > 10000 |
| CC[C@H](C)[C@@H]1NC(=O)[C@@H](Cc2ccccc2)NC(=O)[C@@H]2CCCN2C(=O)[C@@H](Cc2ccccc2)NC(=O)[C@H](Cc2c[nH]cn2)NC(=O)[C@@H](Cc2c[nH]cn2)NC1=O [Example 69, c[D-Phenylalanyl-L-isoleucyl-D-histidinyl-L-histidinyl-D-phenylalanyl-L-prolyl]] (cyclo(H[dF]P[dF]I[dH])) |  | 10000 |
| CC[C@H](C)[C@@H]1NC(=O)[C@@H](Cc2ccccc2)NC(=O)[C@@H]2CCCN2C(=O)[C@@H](Cc2ccccc2)NC(=O)[C@H](c2ccccc2)NC(=O)[C@@H](c2ccccc2)NC1=O [Example 70, c-[D-Phenylalanyl-L-isoleucyl-D-phenylglycinyl-L-phenylglycinyl-D-phenylalanyl-L-prolyl]] (cyclo(I[dPhg][Phg][dF]P[dF])) |  | > 10000 |
| CC[C@H](C)[C@@H]1NC(=O)[C@@H](Cc2ccccc2)NC(=O)[C@@H]2CCCN2C(=O)[C@@H](Cc2ccccc2)NC(=O)[C@@H]2C[C@@H](O)CN2C(=O)[C@H]2CCCN2C1=O [Example 71, c-[D-Phenylalanyl-L-isoleucyl-D-prolyl-L-trans-hydroxyprolyl-D-phenylalanyl-L-prolyl]] (cyclo([Hyp][dF]P[dF]I[dP])) |  | > 10000 |
| C[C@@H](OCc1ccccc1)[C@@H]1NC(=O)[C@@H](Cc2ccccc2)NC(=O)[C@@H]2CCCN2C(=O)[C@@H](Cc2ccccc2)NC(=O)[C@@H]2CCCN2C(=O)[C@H]2CCCN2C1=O [Example 72, c-[D-Phenylalanyl-L-(O-benzyl)-threoninyl-D-prolyl-L-prolyl-D-phenylalanyl-L-prolyl]] (cyclo([dF]P[dF]T(Bn)[dP]P)) |  | > 10000 |
| CC[C@H](C)[C@@H]1NC(=O)[C@@H](Cc2ccc(O)cc2)NC(=O)[C@@H]2CCCN2C(=O)[C@@H](Cc2ccccc2)NC(=O)[C@@H]2CCCNN2C(=O)[C@H]2CCCNN2C1=O [Example 97] (cyclo([dY]I[X6][X12][dF]P)) |  | > 10000 |
| CC[C@H](C)[C@@H]1NC(=O)[C@@H](Cc2ccccc2)NC(=O)[C@@H]2CCCN2C(=O)[C@@H](Cc2ccccc2)NC(=O)[C@H](CC(N)=O)NC(=O)[C@H](CCC(N)=O)NC1=O [Example 100] (cyclo([dF]IQN[dF]P)) |  | 5080 |

Next, values leading:

| inhibition at 0.01 µM (1 h, @ 10 (nM), read-out: [^3 H]OT: percent inhibition of radioligand at the given concentration) [%] | IC50 [nM] | Structure (SMILES) |
| --- | --- | --- |
| 39 |  | CC[C@H](C)[C@@H]1NC(=O)[C@@H](Cc2cccc3ccccc23)NC(=O)[C@@H]2CCCN2C(=O)[C@@H](Cc2c[nH]cn2)NC(=O)[C@@H]2CCCCN2C(=O)[C@H]2CCCCN2C1=O [Example 11, Cyclo[D-a-naphthalalanyl-L-isoleucyl-D-pipecolyl-L-pipecolyl-D-histidyl-L-prolyl]] (cyclo(I[dPip][Pip][dH]P[d1Nal])) |
|  | 2500 | CC[C@H](C)[C@@H]1NC(=O)[C@@H](CC2CCCCC2)NC(=O)[C@@H]2CCCN2C(=O)[C@@H](Cc2ccccc2)NC(=O)[C@@H]2CCCN2C(=O)[C@H]2CCCN2C1=O [Example 55] (cyclo([dCha]I[dP]P[dF]P)) |
|  | > 10000 | O=C1N[C@@H](CC2CCCCC2)C(=O)N2CCC[C@@H]2C(=O)N2CCC[C@H]2C(=O)N[C@H](Cc2ccccc2)C(=O)N2CCC[C@H]2C(=O)N[C@@H]1Cc1ccccc1 [Example 56, c-[D-Phenylalanyl-L-cyclohexylalanyl-D-prolyl-L-prolyl-D-phenylalanyl-L-prolyl]] (cyclo([dF]P[dF][Cha][dP]P)) |
|  | > 10000 | CC[C@H](C)[C@@H]1NC(=O)[C@@H](Cc2ccccc2)NC(=O)CNC(=O)[C@@H](CCC(N)=O)NC(=O)[C@@H]2CCCN2C(=O)[C@H]2CCCN2C1=O [Example 57] (cyclo([dF]I[dP]P[dQ]G)) |
|  | > 10000 | CC[C@H](C)[C@@H]1NC(=O)[C@@H](Cc2ccccc2)NC(=O)[C@@H]2CCCN2C(=O)[C@@H](CSCNC(C)=O)NC(=O)[C@@H]2CCCN2C(=O)[C@H]2CCCN2C1=O [Example 58, c-[D-Phenylalanyl-L-isoleucyl-D-prolyl-L-prolyl-D-cysteinyl(Acm)-L-prolyl]] (cyclo([dC](Acm)P[dF]I[dP]P)) |
|  | > 10000 | CC[C@@H](C)[C@H]1NC(=O)[C@H](Cc2ccccc2)NC(=O)[C@H]2CCCN2C(=O)[C@H](Cc2ccccc2)NC(=O)[C@H]2CCCN2C(=O)[C@@H]2CCCN2C1=O [Example 60, c-[L-Phenylalanyl-D-isoleucyl-L-prolyl-D-prolyl-L-phenylalanyl-D-prolyl]] (cyclo(F[dI]P[dP]F[dP])) |
|  | > 1000 | CC[C@H](C)[C@@H]1NC(=O)[C@@H](Cc2ccccc2)NC(=O)[C@@H]2CCCN2C(=O)[C@@H]([C@H](C)O)NC(=O)[C@@H]2CCCN2C(=O)[C@H]2CCCN2C1=O [Example 62, c-[D-Phenylalanyl-L-isoleucyl-D-prolyl-L-prolyl-D-threoninyl-L-prolyl]] (cyclo([dT]P[dF]I[dP]P)) |
|  | > 10000 | O=C1N[C@@H](c2ccccc2)C(=O)N2CCC[C@@H]2C(=O)N2CCC[C@H]2C(=O)N[C@H](Cc2ccccc2)C(=O)N2CCC[C@H]2C(=O)N[C@@H]1Cc1ccccc1 [Example 63, c-[D-Phenylalanyl-L-phenylglycyl-D-prolyl-L-prolyl-D-phenylalanyl-L-prolyl]] (cyclo([dF]P[dF][Phg][dP]P)) |
|  | > 10000 | O=C1N[C@H](Cc2ccccc2)C(=O)N2CCC[C@H]2C(=O)N[C@H](Cc2ccccc2)C(=O)N2CCC[C@H]2C(=O)N2CCC[C@@H]2C(=O)N2CCC[C@@H]12 [Example 64, c-[D-Phenylalanyl-L-prolyl-D-prolyl-L-prolyl-D-phenylalanyl-L-prolyl]] (cyclo([dF]P[dF]P[dP]P)) |
|  | > 10000 | CC[C@H](C)[C@@H]1NC(=O)[C@@H](Cc2ccccc2)NC(=O)[C@@H]2CCCN2C(=O)[C@@H](Cc2ccccc2)NC(=O)[C@H](C2CCCCC2)NC(=O)[C@@H](C2CCCCC2)NC1=O [Example 65] (cyclo([Chg][dF]P[dF]I[dChg])) |
|  | > 10000 | C[C@@H](O)[C@@H]1NC(=O)[C@@H](Cc2ccccc2)NC(=O)[C@@H]2CCCN2C(=O)[C@@H](Cc2ccccc2)NC(=O)[C@@H]2CCCN2C(=O)[C@H]2CCCN2C1=O [Example 73, c-[D-Phenylalanyl-L-threoninyl-D-prolyl-L-prolyl-D-phenylalanyl-L-prolyl]] (cyclo([dF]P[dF]T[dP]P)) |
|  | > 10000 | CCOc1ccc(C[C@H]2NC(=O)[C@@H]3CCCN3C(=O)[C@@H](Cc3ccccc3)NC(=O)[C@H](CC(N)=O)NC(=O)[C@@H](CCC(N)=O)NC(=O)[C@@H]([C@@H](C)CC)NC2=O)cc1 [Example 101] (cyclo(N[dF]P[dY](Et)[d(aIle)][dQ])) |
